What was measured:
UACC-62 = test: NCI-60 SRB growth inhibition: UACC-62; type: cell-based, human; details: UACC-62, Melanoma; 48 hours treatment
MDA-MB-435 = test: NCI-60 SRB growth inhibition: MDA-MB-435; type: cell-based, human; details: MDA-MB-435, Melanoma, 48 hours treatment; for CC50: Homo sapiens, read-out: LC50 (the source's name)
HL-6O(TB) = test: NCI-60 SRB growth inhibition: HL-6O(TB); type: cell-based, human; details: Leukemia, 48 hours treatment
SF-295 = test: NCI-60 SRB growth inhibition: SF-295; type: cell-based, human; details: for CC50: Homo sapiens, SF-295, 48 h, read-out: LC50 (the source's name); for TGI: SF-295, CNS cancer, 48 hours treatment
MDA-MB-231/ATCC = test: NCI-60 SRB growth inhibition: MDA-MB-231/ATCC; type: cell-based, human; details: Breast cancer, 48 hours treatment
M0LT-4 = test: NCI-60 SRB growth inhibition: M0LT-4; type: cell-based, human; details: M0LT-4, Leukemia; 48 hours treatment
CAKI-1 = test: NCI-60 SRB growth inhibition: CAKI-1; type: cell-based, human; details: CAKI-1, Renal cancer; 48 hours treatment
HCT-15 = test: NCI-60 SRB growth inhibition: HCT-15; type: cell-based, human; details: HCT-15, Colon cancer; 48 hours treatment
A498 = test: NCI-60 SRB growth inhibition: A498; type: cell-based, human; details: A498, Renal cancer, 48 hours treatment; for CC50: Homo sapiens, read-out: LC50 (the source's name)
M14 = test: NCI-60 SRB growth inhibition: M14; type: cell-based, human; details: M14, Melanoma, 48 hours treatment; for CC50: Homo sapiens, read-out: LC50 (the source's name)
OVCAR-5 = test: NCI-60 SRB growth inhibition: OVCAR-5; type: cell-based, human; details: OVCAR-5, Ovarian cancer, 48 hours treatment; for CC50: Homo sapiens, read-out: LC50 (the source's name)
IGROVI = test: NCI-60 SRB growth inhibition: IGROVI; type: cell-based, human; details: Ovarian cancer, 48 hours treatment; for CC50: Homo sapiens, read-out: LC50 (the source's name)
NCI/ADR-RES = test: NCI-60 SRB growth inhibition: NCI/ADR-RES; type: cell-based, human; details: Ovarian cancer, 48 hours treatment; for CC50: Homo sapiens, read-out: LC50 (the source's name)
SNB-19 = test: NCI-60 SRB growth inhibition: SNB-19; type: cell-based, human; details: SNB-19, CNS cancer, 48 hours treatment; for CC50: Homo sapiens, read-out: LC50 (the source's name)
UACC-257 = test: NCI-60 SRB growth inhibition: UACC-257; type: cell-based, human; details: for CC50: Homo sapiens, UACC-257, 48 h, read-out: LC50 (the source's name); for TGI: UACC-257, Melanoma, 48 hours treatment
EKVX = test: NCI-60 SRB growth inhibition: EKVX; type: cell-based, human; details: Non-small cell lung cancer, 48 hours treatment; for CC50: Homo sapiens, read-out: LC50 (the source's name)
HCC-2998 = test: NCI-60 SRB growth inhibition: HCC-2998; type: cell-based, human; details: HCC-2998, Colon cancer; 48 hours treatment
SW-620 = test: NCI-60 SRB growth inhibition: SW-620; type: cell-based, human; details: SW-620, Colon cancer, 48 hours treatment; for CC50: Homo sapiens, read-out: LC50 (the source's name)
SK-MEL-5 = test: NCI-60 SRB growth inhibition: SK-MEL-5; type: cell-based, human; details: SK-MEL-5, Melanoma; 48 hours treatment
HT29 = test: NCI-60 SRB growth inhibition: HT29; type: cell-based, human; details: HT29, Colon cancer, 48 hours treatment; for CC50: Homo sapiens, HT-29, read-out: LC50 (the source's name)
OVCAR-8 = test: NCI-60 SRB growth inhibition: OVCAR-8; type: cell-based, human; details: OVCAR-8, Ovarian cancer, 48 hours treatment; for CC50: Homo sapiens, read-out: LC50 (the source's name)
RPMI-8226 = test: NCI-60 SRB growth inhibition: RPMI-8226; type: cell-based, human; details: RPMI-8226, Leukemia, 48 hours treatment; for CC50: Homo sapiens, read-out: LC50 (the source's name)
SK-MEL-28 = test: NCI-60 SRB growth inhibition: SK-MEL-28; type: cell-based, human; details: SK-MEL-28, Melanoma, 48 hours treatment; for CC50: Homo sapiens, read-out: LC50 (the source's name)
BT-549 = test: NCI-60 SRB growth inhibition: BT-549; type: cell-based, human; details: for TGI: BT-549, Breast cancer, 48 hours treatment; for CC50: Homo sapiens, BT-549, 48 h, read-out: LC50 (the source's name)
T-47D = test: NCI-60 SRB growth inhibition: T-47D; type: cell-based, human; details: Breast cancer, 48 hours treatment; for CC50: Homo sapiens, T47D, read-out: LC50 (the source's name)
A549/ATCC = test: NCI-60 SRB growth inhibition: A549/ATCC; type: cell-based, human; details: Non-small cell lung cancer, 48 hours treatment; for CC50: Homo sapiens, read-out: LC50 (the source's name)
LOX 1MVI = test: NCI-60 SRB growth inhibition: LOX 1MVI; type: cell-based, human; details: Melanoma, 48 hours treatment
COLO 205 = test: NCI-60 SRB growth inhibition: COLO 205; type: cell-based, human; details: COLO 205, Colon cancer, 48 hours treatment; for CC50: Homo sapiens, read-out: LC50 (the source's name)
786-0 = test: NCI-60 SRB growth inhibition: 786-0; type: cell-based, human; details: 786-0, Renal cancer; 48 hours treatment
ABL kinase = biological target: T1, ABL kinase (Homo sapiens, UniProt P00519); test: Functional kinase inhibition assay: ABL; type: biochemical; details: 1 μM compound
T1 construct: purchased Millipore Corp. (Dundee, UK; assay service)
T1 sequence (P00519 whole entry): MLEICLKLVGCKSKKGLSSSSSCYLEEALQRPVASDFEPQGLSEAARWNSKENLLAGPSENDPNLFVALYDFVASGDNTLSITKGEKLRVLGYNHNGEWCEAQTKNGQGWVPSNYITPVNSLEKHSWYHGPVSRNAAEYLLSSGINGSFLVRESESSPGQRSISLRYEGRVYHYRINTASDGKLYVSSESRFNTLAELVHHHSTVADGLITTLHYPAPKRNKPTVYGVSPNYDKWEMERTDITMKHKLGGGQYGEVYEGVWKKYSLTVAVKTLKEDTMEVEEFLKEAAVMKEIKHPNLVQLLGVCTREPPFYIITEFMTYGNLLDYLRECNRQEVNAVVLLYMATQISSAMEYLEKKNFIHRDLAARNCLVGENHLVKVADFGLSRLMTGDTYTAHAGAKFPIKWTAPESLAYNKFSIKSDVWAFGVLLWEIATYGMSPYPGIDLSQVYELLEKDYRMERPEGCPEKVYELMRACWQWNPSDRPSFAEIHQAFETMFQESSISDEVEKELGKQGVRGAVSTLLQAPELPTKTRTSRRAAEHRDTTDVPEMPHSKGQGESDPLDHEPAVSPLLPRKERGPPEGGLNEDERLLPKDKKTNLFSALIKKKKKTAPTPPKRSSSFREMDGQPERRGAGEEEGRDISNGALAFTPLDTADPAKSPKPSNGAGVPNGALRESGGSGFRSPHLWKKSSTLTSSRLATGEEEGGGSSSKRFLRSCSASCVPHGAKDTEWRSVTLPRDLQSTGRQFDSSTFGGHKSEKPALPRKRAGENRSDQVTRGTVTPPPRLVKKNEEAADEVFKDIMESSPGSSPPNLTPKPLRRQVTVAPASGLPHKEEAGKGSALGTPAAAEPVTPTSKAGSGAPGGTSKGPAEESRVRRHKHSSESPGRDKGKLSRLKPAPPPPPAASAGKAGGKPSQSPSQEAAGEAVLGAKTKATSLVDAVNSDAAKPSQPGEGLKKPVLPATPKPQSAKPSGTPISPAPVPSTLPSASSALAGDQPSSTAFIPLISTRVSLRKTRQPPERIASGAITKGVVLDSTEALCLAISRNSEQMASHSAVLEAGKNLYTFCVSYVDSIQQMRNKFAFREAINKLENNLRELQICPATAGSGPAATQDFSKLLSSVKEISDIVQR
Procedure: [formula] The assay was performed in duplicates.
The results of kinase function inhibition assay are shown in Table 6, including the F-POC of 1 μM of compounds 4, 15, and 16 against the most sensitive kinases tested within this experiment. […] Kinases within the same subfamily are highlighted.

SN12C = test: NCI-60 SRB growth inhibition: SN12C; type: cell-based, human; details: Renal cancer, 48 hours treatment; for CC50: Homo sapiens, read-out: LC50 (the source's name)
NCI-60 cell line panel = test: NCI-60 SRB growth inhibition: mean over the panel; type: cell-based, human; details: mean over NCI-60 cell lines, 48 hours treatment; for GI50 / CC50: Homo sapiens; for CC50: read-out: Mean LC50

c1ccc(Cc2cnc(N3CCN(c4ncnc5ccccc45)CC3)nc2)cc1 [Compound 4, 4-(4-(5-benzylpyrimidin-2-yl)piperazin-1-yl)quinazoline] gave a TGI (UACC-62) of 25.90 µM, a CC50 (MDA-MB-435) of 91.4 µM and a TGI (MDA-MB-435) of 27.50 µM. It also gave a TGI (HL-6O(TB)) of 41.80 µM, a CC50 (SF-295) greater than 100 µM and a TGI (SF-295) of 26.00 µM. It also gave a TGI (MDA-MB-231/ATCC) of 38.10 µM, a TGI (M0LT-4) of 40.60 µM and a TGI (CAKI-1) of 39.30 µM. For the same compound, the TGI (HCT-15) was 63.20 µM, the TGI (A498) was 24.20 µM and the CC50 (A498) was 50.1 µM. It also gave a CC50 (M14) of 51.6 µM, a TGI (M14) of 26.30 µM and a CC50 (OVCAR-5) greater than 100 µM. The TGI (OVCAR-5) was 69.80 µM, the CC50 (IGROVI) was greater than 100 µM and the TGI (IGROVI) was 63.30 µM. For the same compound, the CC50 (NCI/ADR-RES) was 66.4 µM, the TGI (NCI/ADR-RES) was 17.60 µM and the CC50 (SNB-19) was greater than 100 µM. The TGI (SNB-19) was greater than 100 µM, the CC50 (UACC-257) was 41.4 µM and the TGI (UACC-257) was 16.80 µM. For the same compound, the CC50 (EKVX) was greater than 100 µM, the TGI (EKVX) was 33.10 µM and the TGI (HCC-2998) was 60.90 µM. For the same compound, the CC50 (SW-620) was 59.9 µM, the TGI (SW-620) was 27.70 µM and the TGI (SK-MEL-5) was 13.90 µM. It also gave a TGI (HT29) of 35.10 µM, a CC50 (HT29) of 79.2 µM and a CC50 (OVCAR-8) of 71.3 µM. For the same compound, the TGI (OVCAR-8) was 25.60 µM, the CC50 (RPMI-8226) was 97.3 µM and the TGI (RPMI-8226) was 21.80 µM. The CC50 (SK-MEL-28) was greater than 100 µM, the TGI (SK-MEL-28) was 99.30 µM and the TGI (BT-549) was 18.40 µM. For the same compound, the CC50 (BT-549) was 43 µM, the TGI (T-47D) was 45.50 µM and the CC50 (T-47D) was greater than 100 µM. It also gave a CC50 (A549/ATCC) greater than 100 µM, a TGI (A549/ATCC) of 35.70 µM and a TGI (LOX 1MVI) of 19.60 µM. It also gave a TGI (COLO 205) greater than 100 µM, a CC50 (COLO 205) greater than 100 µM and a TGI (786-0) of 36.70 µM. The “inhibitory action over ABL kinase function” value (ABL kinase) was “without affecting ABL subfamily members”, the CC50 (SN12C) was 54.8 µM and the TGI (SN12C) was 24.40 µM. For the same compound, the GI50 (NCI-60 cell line panel) was 5.24 µM, the CC50 (NCI-60 cell line panel) was 81.3 µM and the “Mean TGI” value (NCI-60 cell line panel) was 37.15 µM.

For CCc1cnc(N2CCN(C(=O)c3ccc(CNc4ncnc5ccccc45)cc3)CC2)nc1 [Compound 15, (4-(5-ethylpyrimidin-2-yl)piperazin-1-yl)(4-((quinazolin-4-ylamino)methyl)phenyl)methanone], the TGI (UACC-62) was 80.90 µM, the CC50 (MDA-MB-435) was greater than 100 µM and the TGI (MDA-MB-435) was greater than 100 µM. The TGI (HL-6O(TB)) was 38.60 µM, the CC50 (SF-295) was greater than 100 µM and the TGI (SF-295) was 23.10 µM. The TGI (MDA-MB-231/ATCC) was 84.90 µM, the TGI (M0LT-4) was 27.60 µM and the TGI (CAKI-1) was 94.80 µM. The TGI (HCT-15) was greater than 100 µM, the TGI (A498) was greater than 100 µM and the CC50 (A498) was greater than 100 µM. It also gave a CC50 (M14) of 93.7 µM, a TGI (M14) of 32.70 µM and a CC50 (OVCAR-5) greater than 100 µM. It also gave a TGI (OVCAR-5) greater than 100 µM, a CC50 (IGROVI) greater than 100 µM and a TGI (IGROVI) of 49.80 µM. For the same compound, the CC50 (NCI/ADR-RES) was greater than 100 µM, the TGI (NCI/ADR-RES) was 21.50 µM and the CC50 (SNB-19) was greater than 100 µM. For the same compound, the TGI (SNB-19) was greater than 100 µM, the CC50 (UACC-257) was greater than 100 µM and the TGI (UACC-257) was 26.80 µM. It also gave a CC50 (EKVX) greater than 100 µM, a TGI (EKVX) of 61.40 µM and a TGI (HCC-2998) of 48.90 µM. It also gave a CC50 (SW-620) greater than 100 µM, a TGI (SW-620) of 45.10 µM and a TGI (SK-MEL-5) of 2.90 µM. It also gave a TGI (HT29) of 83.20 µM, a CC50 (HT29) greater than 100 µM and a CC50 (OVCAR-8) greater than 100 µM. For the same compound, the TGI (OVCAR-8) was greater than 100 µM, the CC50 (RPMI-8226) was greater than 100 µM and the TGI (RPMI-8226) was 14.30 µM. For the same compound, the CC50 (SK-MEL-28) was greater than 100 µM, the TGI (SK-MEL-28) was greater than 100 µM and the TGI (BT-549) was 10.70 µM. The CC50 (BT-549) was greater than 100 µM, the TGI (T-47D) was greater than 100 µM and the CC50 (T-47D) was greater than 100 µM. The CC50 (A549/ATCC) was greater than 100 µM, the TGI (A549/ATCC) was greater than 100 µM and the TGI (LOX 1MVI) was 28.70 µM. For the same compound, the TGI (COLO 205) was 38.20 µM, the CC50 (COLO 205) was greater than 100 µM and the TGI (786-0) was 54.80 µM. For the same compound, the “inhibitory action over ABL kinase function” value (ABL kinase) was “weak inhibitory action”, the CC50 (SN12C) was greater than 100 µM and the TGI (SN12C) was 59.00 µM. The GI50 (NCI-60 cell line panel) was 4.46 µM, the CC50 (NCI-60 cell line panel) was greater than 100 µM and the “Mean TGI” value (NCI-60 cell line panel) was 51.28 µM.
